# Test results reported in patent US10442807B2, “Aryl substituted bicyclic compounds as herbicides” (FMC Corporation, priority 2015, dated 2019).
# Legend:
# Type in all cases: in vivo
# kochia (Kochia scoparia) [1] = assay: Test A postemergence application, visual injury rating; conditions: approx. 10 d, 0 = no effect, 100 = complete control
# Procedure, shortened: (§1)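 Rated visually against untreated controls after approx. 10 d in greenhouse, scale 0 = no effect, 100 = complete control. Seeded loam/sand blend given directed soil spray preemergence, or plants sprayed at one- to two-leaf stage, 2-10 cm tall; surfactant-containing non-phytotoxic solvent formulation.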
# [2] = system: galium (catchweed bedstraw, Galium aparine); assay: as above; conditions: approx. 10 d, 0 = no effect, 100 = complete control
# Procedure, shortened: as §1
# [3] = system: wheat (Triticum aestivum); assay: as above; conditions: approx. 10 d, 0 = no effect, 100 = complete control
# Procedure, shortened: as §1
# [4] = system: ryegrass, Italian (Italian ryegrass, Lolium multiflorum); assay: as above; conditions: approx. 10 d, 0 = no effect, 100 = complete control
# Procedure, shortened: as §1
# [5] = system: ragweed (common ragweed, Ambrosia elation); assay: as above; conditions: approx. 10 d, 0 = no effect, 100 = complete control
# Procedure, shortened: as §1
# [6] = system: foxtail, giant (giant foxtail, Setaria faberii); assay: as above; conditions: approx. 10 d, 0 = no effect, 100 = complete control
# Procedure, shortened: as §1
# [7] = system: pigweed (Amaranthus retroflexus); assay: as above; conditions: approx. 10 d, 0 = no effect, 100 = complete control
# Procedure, shortened: as §1
# [8] = system: barnyardgrass (Echinochloa crus-galli); assay: as above; conditions: approx. 10 d, 0 = no effect, 100 = complete control
# Procedure, shortened: as §1
# corn (Zea mays) = assay: as above; conditions: approx. 10 d, 0 = no effect, 100 = complete control
# Procedure, shortened: as §1
# [9] = system: blackgrass (Alopecurus myosuroides); assay: as above; conditions: approx. 10 d, 0 = no effect, 100 = complete control
# Procedure, shortened: as §1
# [10] = system: ducksalad (Heteranthera limosa); assay: Test B flooded paddy test, visual plant response rating; conditions: 250 g ai/ha; applied to paddy water at 2-leaf stage; rated after 13 to 15 days; scale 0 to 100, 0 is no effect, 100 is complete control
# Procedure, shortened: (§2)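 Compounds went directly into paddy water with pots flooded 3 cm above soil, that depth held throughout. After 13 to 15 days in the greenhouse, plants were visually rated against untreated controls on a 0 (no effect) to 100 (complete control) scale.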
# [11] = system: sedge, umbrella (small-flower umbrella sedge, Cyperus difformis); assay: as above; conditions: 250 g ai/ha; applied to paddy water at 2-leaf stage; rated after 13 to 15 days; scale 0 to 100, 0 is no effect, 100 is complete control
# Procedure, shortened: as §2
# rice (Oryza sativa) = assay: as above; conditions: 250 g ai/ha; applied to paddy water at 2-leaf stage; rated after 13 to 15 days; scale 0 to 100, 0 is no effect, 100 is complete control
# Procedure, shortened: as §2
# [12] = system: barnyardgrass (Echinochloa crus-galli); assay: as above; conditions: 250 g ai/ha; applied to paddy water at 2-leaf stage; rated after 13 to 15 days; scale 0 to 100, 0 is no effect, 100 is complete control
# Procedure, shortened: as §2
# kochia (Kochia scoparia) [13] = assay: Test A preemergence, directed soil spray, visual injury rating; conditions: approx. 10 d, 0 = no effect, 100 = complete control
# Procedure, shortened: as §1
# [14] = system: ryegrass, Italian (Italian ryegrass, Lolium multiflorum); assay: as above; conditions: approx. 10 d, 0 = no effect, 100 = complete control
# Procedure, shortened: as §1
# [15] = system: ragweed (common ragweed, Ambrosia elation); assay: as above; conditions: approx. 10 d, 0 = no effect, 100 = complete control
# Procedure, shortened: as §1
# [16] = system: foxtail, giant (giant foxtail, Setaria faberii); assay: as above; conditions: approx. 10 d, 0 = no effect, 100 = complete control
# Procedure, shortened: as §1
# [17] = system: pigweed (Amaranthus retroflexus); assay: as above; conditions: approx. 10 d, 0 = no effect, 100 = complete control
# Procedure, shortened: as §1
# [18] = system: barnyardgrass (Echinochloa crus-galli); assay: as above; conditions: approx. 10 d, 0 = no effect, 100 = complete control
# Procedure, shortened: as §1
SMILES,Kochia plant response rating (0 to 100 scale) (kochia (Kochia scoparia) [1]; 125 g ai/ha),Kochia plant response rating (0 to 100 scale) (kochia (Kochia scoparia) [1]; 500 g ai/ha),Galium plant response rating (0 to 100 scale) ([2]; 125 g ai/ha),Galium plant response rating (0 to 100 scale) ([2]; 500 g ai/ha),Wheat plant response rating (0 to 100 scale) ([3]; 125 g ai/ha),Wheat plant response rating (0 to 100 scale) ([3]; 500 g ai/ha),"Ryegrass, Italian plant response rating (0 to 100 scale) ([4]; 125 g ai/ha)","Ryegrass, Italian plant response rating (0 to 100 scale) ([4]; 500 g ai/ha)",Ragweed plant response rating (0 to 100 scale) ([5]; 125 g ai/ha),Ragweed plant response rating (0 to 100 scale) ([5]; 500 g ai/ha),"Foxtail, Giant plant response rating (0 to 100 scale) ([6]; 125 g ai/ha)","Foxtail, Giant plant response rating (0 to 100 scale) ([6]; 500 g ai/ha)",Pigweed plant response rating (0 to 100 scale) ([7]; 125 g ai/ha),Pigweed plant response rating (0 to 100 scale) ([7]; 500 g ai/ha),Barnyardgrass plant response rating (0 to 100 scale) ([8]; 125 g ai/ha),Barnyardgrass plant response rating (0 to 100 scale) ([8]; 500 g ai/ha),Corn plant response rating (0 to 100 scale) (corn (Zea mays); 125 g ai/ha),Corn plant response rating (0 to 100 scale) (corn (Zea mays); 500 g ai/ha),Blackgrass plant response rating (0 to 100 scale) ([9]; 125 g ai/ha),Blackgrass plant response rating (0 to 100 scale) ([9]; 500 g ai/ha),also measured
CCCc1nnc2n1CC(c1ccc(C(F)(F)F)cc1)C2C(=O)Nc1cccc(F)c1F (stereo not drawn) [Compound 17],20,50,40,50,0,0,0,0,0,0,0,30,0,40,0,30,0,0,0,20,"Plant response rating, Flood, Ducksalad [10]: 30; Plant response rating, Flood, Sedge, Umbrella [11]: 0; Plant response rating, Flood, Rice (rice (Oryza sativa)): 0; Plant response rating, Flood, Barnyardgrass [12]: 0; Kochia plant response rating (0 to 100 scale) (kochia (Kochia scoparia) [13]; 125 g ai/ha): 0; Kochia plant response rating (0 to 100 scale) (kochia (Kochia scoparia) [13]; 500 g ai/ha): 30; Ryegrass, Italian plant response rating (0 to 100 scale) ([14]; 125 g ai/ha): 0; Ryegrass, Italian plant response rating (0 to 100 scale) ([14]; 500 g ai/ha): 0; Ragweed plant response rating (0 to 100 scale) ([15]; 125 g ai/ha): 0; Ragweed plant response rating (0 to 100 scale) ([15]; 500 g ai/ha): 0; Foxtail, Giant plant response rating (0 to 100 scale) ([16]; 125 g ai/ha): 30; Foxtail, Giant plant response rating (0 to 100 scale) ([16]; 500 g ai/ha): 90; Pigweed plant response rating (0 to 100 scale) ([17]; 125 g ai/ha): 0; Pigweed plant response rating (0 to 100 scale) ([17]; 500 g ai/ha): 20; Barnyardgrass plant response rating (0 to 100 scale) ([18]; 125 g ai/ha): 0; Barnyardgrass plant response rating (0 to 100 scale) ([18]; 500 g ai/ha): 50"
CSc1ccccc1NC(=O)C1c2nncn2CC1c1ccc(C)c(C)c1 (stereo not drawn) [Compound 18],20,20,20,20,0,0,0,0,0,0,0,20,0,0,0,30,0,0,0,0,"Plant response rating, Flood, Ducksalad [10]: 40; Plant response rating, Flood, Sedge, Umbrella [11]: 0; Plant response rating, Flood, Rice (rice (Oryza sativa)): 0; Plant response rating, Flood, Barnyardgrass [12]: 0; Kochia plant response rating (0 to 100 scale) (kochia (Kochia scoparia) [13]; 125 g ai/ha): 0; Kochia plant response rating (0 to 100 scale) (kochia (Kochia scoparia) [13]; 500 g ai/ha): 0; Ryegrass, Italian plant response rating (0 to 100 scale) ([14]; 125 g ai/ha): 0; Ryegrass, Italian plant response rating (0 to 100 scale) ([14]; 500 g ai/ha): 20; Ragweed plant response rating (0 to 100 scale) ([15]; 125 g ai/ha): 0; Ragweed plant response rating (0 to 100 scale) ([15]; 500 g ai/ha): 30; Foxtail, Giant plant response rating (0 to 100 scale) ([16]; 125 g ai/ha): 0; Foxtail, Giant plant response rating (0 to 100 scale) ([16]; 500 g ai/ha): 80; Pigweed plant response rating (0 to 100 scale) ([17]; 125 g ai/ha): 0; Pigweed plant response rating (0 to 100 scale) ([17]; 500 g ai/ha): 0; Barnyardgrass plant response rating (0 to 100 scale) ([18]; 125 g ai/ha): 20; Barnyardgrass plant response rating (0 to 100 scale) ([18]; 500 g ai/ha): 60"
Cc1ccc(C2Cn3c(C)nnc3C2C(=O)Nc2cccc(F)c2F)cc1C (stereo not drawn) [Compound 19],0,20,0,50,0,30,0,20,0,20,30,80,0,0,60,90,0,30,0,70,"Plant response rating, Flood, Ducksalad [10]: 20; Plant response rating, Flood, Sedge, Umbrella [11]: 0; Plant response rating, Flood, Rice (rice (Oryza sativa)): 0; Plant response rating, Flood, Barnyardgrass [12]: 30; Kochia plant response rating (0 to 100 scale) (kochia (Kochia scoparia) [13]; 125 g ai/ha): 0; Kochia plant response rating (0 to 100 scale) (kochia (Kochia scoparia) [13]; 500 g ai/ha): 30; Ryegrass, Italian plant response rating (0 to 100 scale) ([14]; 125 g ai/ha): 0; Ryegrass, Italian plant response rating (0 to 100 scale) ([14]; 500 g ai/ha): 20; Ragweed plant response rating (0 to 100 scale) ([15]; 125 g ai/ha): 0; Ragweed plant response rating (0 to 100 scale) ([15]; 500 g ai/ha): 0; Foxtail, Giant plant response rating (0 to 100 scale) ([16]; 125 g ai/ha): 70; Foxtail, Giant plant response rating (0 to 100 scale) ([16]; 500 g ai/ha): 90; Pigweed plant response rating (0 to 100 scale) ([17]; 125 g ai/ha): 0; Pigweed plant response rating (0 to 100 scale) ([17]; 500 g ai/ha): 0; Barnyardgrass plant response rating (0 to 100 scale) ([18]; 125 g ai/ha): 50; Barnyardgrass plant response rating (0 to 100 scale) ([18]; 500 g ai/ha): 90"
O=C(Nc1ccccc1F)C1c2nncn2CC1c1ccc(Cl)cc1 (stereo not drawn) [Compound 20],0,40,30,50,0,20,0,0,0,20,20,70,0,0,20,60,20,80,0,0,"Plant response rating, Flood, Ducksalad [10]: 70; Plant response rating, Flood, Sedge, Umbrella [11]: 0; Plant response rating, Flood, Rice (rice (Oryza sativa)): 0; Plant response rating, Flood, Barnyardgrass [12]: 40; Kochia plant response rating (0 to 100 scale) (kochia (Kochia scoparia) [13]; 125 g ai/ha): 30; Kochia plant response rating (0 to 100 scale) (kochia (Kochia scoparia) [13]; 500 g ai/ha): 90; Ryegrass, Italian plant response rating (0 to 100 scale) ([14]; 125 g ai/ha): 0; Ryegrass, Italian plant response rating (0 to 100 scale) ([14]; 500 g ai/ha): 0; Ragweed plant response rating (0 to 100 scale) ([15]; 125 g ai/ha): 0; Ragweed plant response rating (0 to 100 scale) ([15]; 500 g ai/ha): 50; Foxtail, Giant plant response rating (0 to 100 scale) ([16]; 125 g ai/ha): 30; Foxtail, Giant plant response rating (0 to 100 scale) ([16]; 500 g ai/ha): 90; Pigweed plant response rating (0 to 100 scale) ([17]; 125 g ai/ha): 0; Pigweed plant response rating (0 to 100 scale) ([17]; 500 g ai/ha): 0; Barnyardgrass plant response rating (0 to 100 scale) ([18]; 125 g ai/ha): 20; Barnyardgrass plant response rating (0 to 100 scale) ([18]; 500 g ai/ha): 70"
